From patent publication US7432388B2 (Allergan, Inc., priority 2003, dated 2008)

Key:
RARγ [1] = target: T1, RARγ (Homo sapiens, UniProt P13631); test: ligand binding assay; conditions: expressed in Ki numbers, read-out: RAR Binding γ
T1 sequence (P13631 1-454): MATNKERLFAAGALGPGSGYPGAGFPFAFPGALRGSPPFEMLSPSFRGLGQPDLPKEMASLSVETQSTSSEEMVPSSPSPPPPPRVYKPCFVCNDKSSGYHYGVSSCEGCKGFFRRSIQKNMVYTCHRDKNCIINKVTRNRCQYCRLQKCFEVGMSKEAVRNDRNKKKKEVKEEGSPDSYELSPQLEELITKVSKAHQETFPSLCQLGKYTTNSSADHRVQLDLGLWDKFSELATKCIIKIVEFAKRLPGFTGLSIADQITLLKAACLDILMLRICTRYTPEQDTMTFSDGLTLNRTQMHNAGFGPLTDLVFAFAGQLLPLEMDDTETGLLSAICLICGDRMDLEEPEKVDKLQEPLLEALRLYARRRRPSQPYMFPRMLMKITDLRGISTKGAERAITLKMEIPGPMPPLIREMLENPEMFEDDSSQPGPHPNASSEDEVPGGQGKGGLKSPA
Protocol: (§1) The results obtained in this assay are expressed in EC50 numbers, as they are also in the chimeric receptor transactivation assay. The other functional assay running in the presence of 1 nM all-trans retinoic acid, namely PGA-RAR antagonist assay (utilizing glucocorticoid-retinoid chimeric receptors), is a modified chimeric receptor transactivation assay which tests the compounds for their antagonist-like activity in the RARα, RARγ and RARγ receptor subtypes.
The results of the ligand binding assay are expressed in Ki numbers.

RARα = target: T2, RARα (Homo sapiens, UniProt P10276); test: chimeric receptor transactivation assay (agonist-like activity); assay type: cell-based; design: RAR EC50 (nM) (% Efficiency) α; conditions: read-out: RAR EC50 (nM) (% Efficiency) α
T2 sequence (P10276 183-417 limits assumed): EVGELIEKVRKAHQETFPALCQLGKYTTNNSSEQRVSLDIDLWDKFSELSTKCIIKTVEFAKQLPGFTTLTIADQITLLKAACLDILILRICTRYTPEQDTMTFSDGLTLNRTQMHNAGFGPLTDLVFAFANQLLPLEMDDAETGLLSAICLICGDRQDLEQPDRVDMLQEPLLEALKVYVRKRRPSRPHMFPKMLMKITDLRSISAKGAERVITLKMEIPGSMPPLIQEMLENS
Protocol: Specifically, one assay in which the compounds were tested is a chimeric receptor transactivation assay which tests for agonist-like activity in the RARα, RARγ and RARγ receptor subtypes, and which is based on work published by Feigner P. L. and Holm M (1989) Focus, 112 is described in detail in U.S. Pat. No. 5,455,265. The specification of U.S. Pat. No. 5,455,265 is hereby expressly incorporated by reference.
(§2) A holoreceptor transactivation assay and a ligand binding assay which measure the antagonist/agonist like activity of the compounds of the invention, or their ability to bind to the several retinoid receptor subtypes, respectively, are described in published PCT Application No. WO WO93/11755 (particularly on pages 30-33 and 37-41) published on Jun. 24, 1993, the specification of which is also incorporated herein by reference. A detailed experimental procedure for holoreceptor transactivations has been described by Heyman et al. Cell 68, 397-406, (1992); Allegretto et al. J. Biol. Chem. 268, 26625-26633, and Mangelsdorf et al. The Retinoids: Biology, Chemistry and Medicine, pp 319-349, Raven Press Ltd., New York, which are expressly incorporated herein by reference. The results obtained in this assay are expressed in EC50 numbers, as they are also in the chimeric receptor transactivation assay. The other functional assay running in the presence of 1 nM all-trans retinoic acid, namely PGA-RAR antagonist assay (utilizing glucocorticoid-retinoid chimeric receptors), is a modified chimeric receptor transactivation assay which tests the compounds for their antagonist-like activity in the RARα, RARγ and RARγ receptor subtypes. The results from this assay are normally expressed in IC50 numbers (See Teng et al. J. Med. Chem. 40, 2445-2452, (1997) incorporated herein by reference.)

RARγ [2] = target: T3, RARγ (Homo sapiens, UniProt P13631); test: as above; assay type: cell-based; design: RAR EC50 (nM) (% Efficiency) γ; conditions: read-out: RAR EC50 (nM) (% Efficiency) γ
T3 sequence (P13631 185-419 limits assumed): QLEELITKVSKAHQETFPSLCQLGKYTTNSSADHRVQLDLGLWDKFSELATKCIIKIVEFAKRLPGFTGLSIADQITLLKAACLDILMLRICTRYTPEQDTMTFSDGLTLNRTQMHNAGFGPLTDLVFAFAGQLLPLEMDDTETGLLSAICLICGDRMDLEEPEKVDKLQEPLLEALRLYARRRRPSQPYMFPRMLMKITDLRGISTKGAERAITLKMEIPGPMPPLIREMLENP

RARβ = target: T4, RARβ (Homo sapiens, UniProt P10826); test: PGA-RAR antagonist assay (glucocorticoid-retinoid chimeric receptors); assay type: cell-based; design: other: in the presence of 1 nM all-trans retinoic acid; fused on or other part: Glucocorticoid receptor DNA-recognition part in place of RAR's own; conditions: in the presence of 1 nM all-trans retinoic acid; read-out: RAR IC50 (nM) (% Inhibition) β
T4 sequence (P10826 183-417 limits assumed): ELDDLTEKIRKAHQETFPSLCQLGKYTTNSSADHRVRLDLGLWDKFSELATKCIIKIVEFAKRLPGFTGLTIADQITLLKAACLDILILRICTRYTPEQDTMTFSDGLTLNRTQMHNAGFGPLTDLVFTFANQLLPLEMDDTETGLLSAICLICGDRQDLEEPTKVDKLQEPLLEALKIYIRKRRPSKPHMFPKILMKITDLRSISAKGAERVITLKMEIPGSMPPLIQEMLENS
From the text: as §2
Percentage inhibition in an antagonist assay is expressed as a percentage of the maximum inhibition of the transaction activity induced by 1 nM all-trans retinoic acid.

RARγ [3] = target: T3, RARγ; test: as above; assay type: cell-based; design: RAR IC50 (nM) γ; other: in the presence of 1 nM all-trans retinoic acid; fused on or other part: Glucocorticoid receptor DNA-recognition part in place of RAR's own; conditions: for IC50: in the presence of 1 nM all-trans retinoic acid, read-out: RAR IC50 (nM) γ; for RAR γ (% Inhibition): percentage of the maximum inhibition of the activity induced by 1 nM all-trans retinoic acid
Protocol: as §1

Ki (RARγ [1])	EC50 (RARα)	EC50 (RARγ [2])	IC50 (RARβ)	IC50 (RARγ [3])	RAR γ (% Inhibition) (RARγ [3])	SMILES
133 nM	> 10000 nM	> 10000 nM	> 1000 nM	13 nM	78%	Cc1ccc(C2=CCC(C)(C)c3cc(C(/C=C/c4ccc(C(=O)O)cc4F)=N\O)ccc32)cc1 [Compound 9b, Z-4-[3-(8,8-Dimethyl-5-p-tolyl-7,8-dihydro-naphthalen-2-yl)-3-hydroxyimino-propenyl]-3-fluoro-benzoic acid]
70 nM	> 10000 nM	> 10000 nM	> 1000 nM	52 nM	70%	Cc1ccc(C2=CC(C)(C)c3cc(C(/C=C/c4ccc(C(=O)O)cc4F)=N/O)ccc32)cc1 [Compound 18a, E-4-[3-(3,3-Dimethyl-1-p-tolyl-3H-inden-5-yl)-3-hydroxyimino-propenyl]-3-fluoro-benzoic acid]
11 nM	> 10000 nM	> 10000 nM	> 1000 nM	5 nM	90%	Cc1ccc(C2=CCC(C)(C)c3cc(C(/C=C/c4ccc(C(=O)O)cc4F)=N/O)ccc32)cc1 [Compound 9a, E-4-[3-(8,8-Dimethyl-5-p-tolyl-7,8-dihydro-naphthalen-2-yl)-3-hydroxyimino-propenyl]-3-fluoro-benzoic acid]
145 nM	> 10000 nM	> 10000 nM	> 1000 nM	67 nM	54%	Cc1ccc(C2=CC(C)(C)c3cc(C(/C=C/c4ccc(C(=O)O)cc4)=N\O)ccc32)cc1 [Compound 16b]
717 nM	> 10000 nM	> 10000 nM	> 1000 nM	226 nM	58%	Cc1ccc(C2=CC(C)(C)c3cc(C(/C=C/c4ccc(C(=O)O)cc4F)=N\O)ccc32)cc1 [Compound 18b, Z-4-[3-(3,3-Dimethyl-1-p-tolyl-3H-inden-5-yl)-3-hydroxyimino-propenyl]-3-fluoro-benzoic acid]
3 nM	> 10000 nM	> 10000 nM	> 1000 nM	0.6 nM	95%	Cc1ccc(C2=CCC(C)(C)c3cc(C(/C=C/c4ccc(C(=O)O)cc4)=N/O)ccc32)cc1 [Compound 7a, E-4-[3-(8,8-Dimethyl-5-p-tolyl-7,8-dihydro-naphthalen-2-yl)-3-hydroxyimino-propenyl]-benzoic acid]
29 nM	> 10000 nM	> 10000 nM	> 1000 nM	25 nM	88%	Cc1ccc(C2=CCC(C)(C)c3cc(C(/C=C/c4ccc(C(=O)O)cc4)=N\O)ccc32)cc1 [Compound 7b, Z-4-[3-(8,8-dimethyl-5-p-tolyl-7,8-dihydro-naphthalen-2-yl)-3-hydroxyimino-propenyl]-benzoic acid]
25 nM	> 10000 nM	> 10000 nM	> 1000 nM	27 nM	78%	Cc1ccc(C2=CC(C)(C)c3cc(C(/C=C/c4ccc(C(=O)O)cc4)=N/O)ccc32)cc1 [Compound 16a]
6 nM	> 10000 nM	> 10000 nM	> 100000 nM	2 nM	108%	Cc1ccc(C2=CCC(C)(C)c3cc(C(/C=C/c4ccc(C(=O)O)cc4)=NO)ccc32)cc1 (racemic) [Compound 7c, 4-[3-(8,8-Dimethyl-5-p-tolyl-7,8-dihydro-naphthalen-2-yl)-3-hydroxyimino-propenyl]-benzoic acid]
